Laboratory results published in the METLIN SMRT retention time set (Domingo-Almenara et al. 2019).

Assay: gradient 5% acetonitrile 3 min, to 50% in 2 min, to 85% in 15 min, held 3 min, 100 µL/min
Conditions: column: Zorbax Extend-C18 2.1 x 50 mm; eluents: water / acetonitrile, 0.1% formic acid
How it was run: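 A Zorbax Extend-C18 column (2.1 × 50 mm, 1.8 μm) run at 100 μL/min with water and acetonitrile, both containing 0.1% formic acid, separated mixtures of ~100 pure standards. The HPLC was coupled to a quadrupole time-of-flight mass spectrometer operated in positive and negative ionization mode, with dead and dwell volumes of 40 μL and 900 μL. Each retention time was taken from a computationally picked adduct peak that was then manually inspected.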

SMILES | RP-LC retention time [s]
Cc1noc(C)c1S(=O)(=O)N1CCC2(CC1)CC(OCc1ccccc1)CCO2 (stereo not given) | 1070
Cc1ccc(-c2ccc(N3CCCC(C(=O)N4CCC5(CC4)OCCO5)C3)nn2)cc1C (stereo not given) | 684
COC(=O)c1c(NCCC(C)C)c2cccc(Cl)c2[nH]c1=O | 847
COc1cccc(-c2noc(C3CCCN3C(=O)Nc3cccc(C#N)c3)n2)c1 (stereo not given) | 927
Cc1nc(-c2cccnc2)nc2c1CCC(=O)N2Cc1cccnc1 | 560
CCn1nc(C)c(CCNC(=O)CCCn2c(=O)c3cccn3c3ccc(Br)cc32)c1C | 730
CC(C)n1nc(CNC(=O)C2CCC2)c2ccccc21 | 812
COc1cccc(CN2CCCCCCNC(=O)[C@@H]3CCC[C@@H]32)n1 | 660
CC(=O)Nc1ccc(Br)cc1 | 680
CCN(CC)CCNC(=O)C1CCCN(c2nc3cccnc3s2)C1 (stereo not given) | 577
CCc1nncn1C1CCN(C(=O)c2cc(-c3cccs3)[nH]n2)C1 (stereo not given) | 595
Cc1cccc(S(=O)(=O)N2CCc3nc[nH]c3C2)c1 | 590
CCc1ccc(NS(=O)(=O)c2cc(-c3[nH]ncc3C(=O)N3CCOCC3)oc2C)cc1 | 721
CCOc1ccc(-n2nnc(-c3nc(-c4ccc(C(C)C)cc4)cs3)c2N)cc1 | 1350
CCc1nc2ccccc2c(=O)n1Cc1noc(C2CC(=O)N(c3ccc(C)c(C)c3)C2)n1 (stereo not given) | 927
Cc1ccc2c(=O)c(C(=O)N3CCCC3)cn(CC(=O)NC3CCCCC3)c2n1 | 676
Cc1cc(N2CCN(C(=O)c3ccco3)CC2)n2nc(C)c(-c3ccc(Cl)cc3)c2n1 | 838
CC(C)N1C(=O)C2(CCCC2)C1C(=O)N1CCc2ccccc21 (stereo not given) | 780
CCCn1c(=O)sc2cc(S(=O)(=O)N3CCC(C(=O)N4c5ccccc5CC4C)CC3)ccc21 (stereo not given) | 1080
CCC(=O)Nc1nc(-c2ccc(C(C)C)cc2)cs1 | 1000
COc1cc(OC)c(NC(=O)Cn2nc3c(cc2=O)CCCC3)cc1Cl | 719
O=C(NC1CCCCC1)C1CCN(C(=O)c2cc(-c3ccncc3)n[nH]2)CC1 | 590
O=C(Cc1csc2nc(-c3cccc(Br)c3)cn12)NC1CCCCC1 | 952
CSc1cccc(NC(=O)C2CCN(S(=O)(=O)c3cn(C)cn3)CC2)c1 | 736
CCc1nc(-n2cccc2)sc1C(=O)Nc1cccc(C)c1 | 1150

SMILES | RP-LC retention time [s]
CN1CCC(OC2CCN(C(=O)c3ccc(Cl)s3)CC2)CC1 | 609
Cn1ncc2c(N3CCSCC3)nc(C(=O)Nc3ccccc3)nc21 | 819
CCc1ccccc1NS(=O)(=O)c1cc2n(c1)CCN(CC)C2=O | 771
COc1ccc(-c2nc(CC3CCNC3)no2)cc1 (stereo not given) | 607
Cc1ccc(N2CCN(Cc3nc(-c4ccc(N5CCCCC5)nc4)no3)CC2)cc1 | 901
COc1ccc(-c2ccnc3nc(C4CC4)nn23)c(F)c1 | 797
O=C1COc2cc(S(=O)(=O)N3CCC(C(=O)NCC4CCCO4)CC3)c(Cl)cc2N1 (stereo not given) | 653
CCOc1ccc(S(=O)(=O)N2CCN(c3cc(C)nc(NC4CCCCC4)n3)CC2)cc1 | 839
COCCNC(=O)C1c2cc(OC)c(OC)cc2C(=O)N(C)C1c1ccc(OC)c(OC)c1 (stereo not given) | 642
c1cnc2c(c1)ccc1ncccc12 | 674
CCCN(CC1CCOC1)C(=O)Nc1cc(F)c(F)c(F)c1 (stereo not given) | 844
CC1CCC(NC(=O)C2CCCN(C(=O)c3cc(-c4ccccn4)n[nH]3)C2)CC1 (stereo not given) | 636
Cc1ccsc1CN1CCC(c2nc(-c3cnccn3)n[nH]2)CC1 | 567
O=C(NC1CC1)c1cc(N2CCCC2)nc2ccc(F)cc12 | 600
COc1ccc(-c2ccnc3nc(C(C)C)nn23)c(F)c1 | 840
Cc1ccc(-n2c(=O)c3sccc3n(Cc3nc(-c4ccc(C(F)(F)F)cc4)no3)c2=O)cc1 | 1190
COc1cc([C@H]2Oc3cc([C@@H]4Oc5cc(O)cc(O)c5C(=O)[C@@H]4O)ccc3O[C@@H]2CO)ccc1O | 754
CSc1nc(N2CCCC2)c2cnn(CCNC(=O)CSc3ccc(F)cc3)c2n1 | 829
COCCNC(=O)CCc1cc2ccc(C)cc2[nH]c1=O | 614
COCCc1noc(C2CN(S(=O)(=O)c3cccc(F)c3)C2)n1 | 784
Cc1cccc(NC(=O)N2CCc3nc(C)ncc3C2)c1 | 656
COc1ccc(-c2noc3ncnc(N4CCC(C(=O)N5CCC(C(N)=O)CC5)CC4)c23)cc1 | 656
CCc1c(CN2CCN(c3ccccn3)CC2)csc1C | 596
COc1ccc(NC(=O)CCc2c(C)nn(-c3cc(N(C)C)ncn3)c2C)cc1Cl | 822
Cc1ccc(-c2nc(CN3CCOCC3)c(C)o2)cc1 | 640

Continued, values first:

RP-LC retention time [s] | SMILES
964 | Cc1cc(-c2nnc(-c3ccc(F)cc3)o2)c(C)n1CC(=O)Nc1ccc(F)cc1
935 | Cc1sc(NC(=O)c2ccc(F)cc2)nc1-c1ccc2c(c1)NC(=O)C(C)O2 (stereo not given)
692 | Cc1nnc(SCCC(=O)Nc2ccc(F)cc2)s1
727 | COc1ccc(Cl)cc1NC(=O)Cn1c(C)nc(-c2ccccn2)cc1=O
1000 | Cn1c(=O)n(CC(=O)Nc2ccc(F)cc2F)c(=O)c2cnc(-c3ccccc3)nc21
717 | COCCNC(=O)c1ccc2c(c1)N(Cc1ccc(F)cc1)C(=O)CO2
744 | O=C(COc1ccc(Cl)cc1)Nc1c(-c2ccc(F)cc2)nc2ccccn12
645 | Cc1oc(-c2ccc(C(=O)NCCCN3CCN(C)CC3)cc2)nc1CSc1ccccc1
650 | CCN1CCC(N(Cc2ccc3c(c2)OCO3)C(=O)Nc2ccccc2)CC1
942 | CCc1nn2c(CNS(=O)(=O)c3ccc(F)cc3F)c(-c3ccccc3)nc2s1
971 | COc1ccc(-c2nc(C3CC(=O)N(c4ccccc4)C3)no2)cc1 (stereo not given)
597 | Cc1ccsc1C(=O)NCc1ccc2c(c1)ncn2C
761 | CCOC(=O)Cc1ccc(NC(=O)N2CCC3(CC2)NC(=O)c2ccccc2O3)cc1
1090 | CN(C(=O)Cn1cccc1-c1nc(-c2ccc3c(c2)OCO3)no1)c1ccccc1
1130 | O=C(Cc1cccs1)N1CCc2c([nH]c3ccccc23)C1c1ccccc1 (stereo not given)
607 | CCOC(=O)CCNC(=O)N1CCN(Cc2nc3cccnc3n2-c2ccc(F)cc2)CC1
693 | COCCN1CC2(CCN(S(=O)(=O)c3ccc(C)cc3)CC2)C1c1ccccc1 (stereo not given)
675 | COCC(C)(O)CNC(=O)C(=O)Nc1cccc(F)c1 (stereo not given)
650 | COC(=O)c1ccc(C(=O)N(Cc2ccccn2)Cc2ccco2)cc1
964 | O=C(Nc1cccc(F)c1)N1CCCC1c1nc(-c2ccccc2)no1 (stereo not given)

RP-LC retention time [s] | SMILES
793 | O=C(NCCO)c1cccc(-c2cc(Nc3ccc(OC(F)(F)F)cc3)ncn2)c1
626 | CCOC(=O)c1ccccc1NC(=O)N1CCc2nc[nH]c2C1
775 | O=c1c2nc(-c3ccccc3)cn2ccn1-c1ccc(F)cc1
764 | Cn1ncc2c3ccccc3n(CC(=O)NCc3cccs3)c2c1=O
755 | O=C(Nc1ccc(F)cc1)C1CCN(S(=O)(=O)c2cc(C(=O)N3CCOCC3)cs2)CC1
774 | CCOc1ncccc1C(=O)Nc1cccc(-c2csc3nc(C)cc(=O)n23)c1
854 | CC(C)NC(=O)c1ccc(OCC2CCN(C(=O)c3ccc(F)cc3F)CC2)cc1
581 | O=C(CSCc1ccccc1)NCC#CCN1CCc2ccccc2C1
840 | CCN1C(=O)COc2ccc(-c3csc(NC(=O)c4ccco4)n3)cc21
932 | O=C(Nc1ccc(F)cc1F)N1CCc2nc(-c3ccc(F)cc3)ncc2C1
1080 | Fc1ccc(-c2noc(-c3ccc(N4CCOCC4)nc3)n2)cc1
711 | O=C(CN1c2ccc(F)cc2-c2ccccc2S1(=O)=O)N1CCN(Cc2ccccc2)CC1
1150 | COC(=O)CCSCc1ccc(-c2onc(C)c2NC(=O)OC(C)c2ccccc2Cl)cc1 (stereo not given)
1140 | O=C1/C(=C/c2ccccc2)CN(C(=O)/C=C/c2ccccc2)C/C1=C\c1ccccc1
933 | Cc1cc2c(c(=O)n(-c3ccc(F)cc3)c(=O)n2CC(=O)Nc2cccc(C(F)(F)F)c2)n1C
1090 | O=C(N[C@H](Cc1ccccc1)C(=O)NCc1cscn1)c1ccc(F)cc1
1100 | Cc1ccc(Nc2c(-c3cccc([N+](=O)[O-])c3)nc3ccc(Cl)cn23)cc1
1360 | CCOC(=O)c1ccc2nc(C(F)(F)F)nc(NC(C)CCc3ccccc3)c2c1 (stereo not given)
617 | O=C(Cc1cccc(F)c1)N1CCC(Nc2ncnc3c2CCC3)C1 (stereo not given)
787 | O=C(NCc1ccc(OC(F)(F)F)cc1)C1c2c(F)cccc2C(=O)N1CCc1ccccn1 (stereo not given)
